Consider three compounds from patent US5792882A, “Phenoxyphenyl cyclopentenyl hydroxyureas” (Pfizer Inc., priority 1993, dated 1998).

Each structure is given as a SMILES string.

For test [1], the system named is platelet activating factor (PAF) induced lethality. In words: PAF induced lethality in mice, test compound administered orally. The conditions noted are these: Mus musculus, oral administration 45 min prior to PAF injection (12 μg/Kg i.v.), mortality 1 hr after PAF. The class given is in vivo, ICR mice (male). On the procedure:
2) In vivo system measuring effects of test compound administered orally against platelet activating factor (PAF) induced lethality in mice
The in vivo potency after oral administration of test compounds to ICR mice (male) was determined using the PAF lethality assay in a similar manner as that described in the following articles: J. M. Young, P. J. Maloney, S. N. Jubb, and J. S. Clark, Prostaglandins, 30, 545 (1985); M. Criscuoli and A. Subissi, Br. J. Pharmac., 90, 203 (1987); and H. Tsunoda, S. Abe, Y. Sakuma, S. Katayama and K. Katayama, Prostaglandins Leukotrienes and Essential Fatty Acids, 39, 291 (1990). PAF was dissolved at a concentration of 1.2 μg/ml in 0.05 mg/ml propranolol-saline containing 0.25% bovine serum albumin (BSA) and injected intravenously into mice at a dose of 12 μg/Kg. Mortality was determined 1 hr after PAF injection. To investigate the effect of 5-LO inhibitors, compounds were dissolved in 5% tween 80, 5% EtOH-saline and administered orally (0.1 ml/10 g) 45 min prior to PAF injection. Linear regression was used to estimate ED50 values.

Test [2] concerns the target T1, 5-lipoxygenase (LO) (Homo sapiens, UniProt P09917).
T1 construct: Aliquots of heparinized human whole blood (1 ml) from healthy donors; endogenous in cells; host or cells: heparinized human whole blood from healthy donors
T1 sequence (P09917 1-674): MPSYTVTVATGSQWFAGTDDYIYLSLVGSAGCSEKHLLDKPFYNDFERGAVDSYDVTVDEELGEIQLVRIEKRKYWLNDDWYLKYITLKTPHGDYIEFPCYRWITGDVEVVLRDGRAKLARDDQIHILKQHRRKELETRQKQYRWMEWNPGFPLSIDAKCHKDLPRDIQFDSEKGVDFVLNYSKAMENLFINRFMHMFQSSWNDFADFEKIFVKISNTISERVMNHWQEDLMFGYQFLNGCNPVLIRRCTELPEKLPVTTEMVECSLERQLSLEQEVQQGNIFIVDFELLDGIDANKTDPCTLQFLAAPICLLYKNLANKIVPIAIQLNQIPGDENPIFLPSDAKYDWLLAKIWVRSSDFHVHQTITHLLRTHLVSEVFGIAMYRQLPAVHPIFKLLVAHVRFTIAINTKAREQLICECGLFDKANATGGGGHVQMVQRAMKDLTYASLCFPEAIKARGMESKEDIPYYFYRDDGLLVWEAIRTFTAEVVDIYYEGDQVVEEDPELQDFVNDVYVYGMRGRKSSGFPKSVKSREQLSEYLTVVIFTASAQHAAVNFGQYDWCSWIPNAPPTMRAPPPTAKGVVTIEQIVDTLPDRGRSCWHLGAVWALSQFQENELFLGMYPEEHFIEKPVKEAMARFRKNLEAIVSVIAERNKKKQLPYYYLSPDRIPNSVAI
In words: In vitro assay using heparinized human whole blood (HWB). It counts as cell-based. Particulars: calcium ionophore stimulated, 10 min preincubation at 37° C., read-out: IC50, inhibition of 5-lipoxygenase metabolism of arachidonic acid. The method, then: 1) In vitro assay using heparinized human whole blood (HWB)
Aliquots of heparinized human whole blood (1 ml) from healthy donors were preincubated with drugs dissolved in dimethyl sulfoxide (final concentration, 0.1%) for 10 min at 37° C., then calcium ionophore […] (60 μM) and Heparapid (2.5%, Sekisui Chemical Co. LTD., Japan) were added and incubations were continued for further 30 min. Reactions were terminated by rapid cooling in an ice bath. Blood-clots induced by Heparapid were removed by centrifugation. Acetonitrile (ACN, 1.5 ml) and PGB2 (200 ng, as internal standard) were added to supernatants. Samples were mixed by Voltex mixer and precipitated proteins were removed by centrifugation. Supernatants were diluted to 15% ACN with water and were loaded onto prewashed Sep-Pak C18 cartridge (Waters Associates, Milford, Miss., USA) and arachidonate metabolites were eluted with 4 ml of 70% methanol. Methanolic extract was evaporated and the residue was then reconstituted in 250 μl of 67% ACN.
ACN reconstituents (100 μl) were injected onto a reversed phase C18 column (Wakosil SC18, 4.6×150 mm, Wako Pure Chemical Industries LTD, Japan). Column temperature was 40° C. HPLC analysis was performed by Hewlett Packard model 1090M HPLC system. The chromatographic was achieved by gradient elution using two different mobile phase ( mobile phase A consisted of 10% ACN, 0.1% trifluoroacetic acid and 0.05% triethylamine; mobile phase B consisted of 80% ACN, 0.1% trifluoroacetic acid and 0.05% triethylamine). Each mobile phase was continuously sparged with helium. The HPLC gradient was programmed as follows (where A+B=100): from 0 to 9.7 min, a linear gradient from 35 to 100% of […] with flow rate of 1 ml/min. Peaks of eluting products were quantitated by UV absorbance (LTB4 and PGB2 at 275 nm; HHT and 5-HETE at 235 nm, respectively) and were corrected by PGB2 recovery. Linear regression was used to estimate IC50 values. […]

For the compound `NC(=O)N(O)C1C=C(c2cccc(Oc3ccc(F)cc3)c2)CC1` (single isomer, unassigned; (+)) [Example 1, (+)-N-[3-[3-(4-Fluorophenoxy)phenyl]-2-cyclopenten-1-yl]-N-hydroxyurea], the ED50 in test [1] is 1 to 10 mg/kg. In addition, the IC50 in test [2] is about 500 nM.

Consider `NC(=O)N(O)C1C=C(c2cccc(Oc3ccccc3)c2)CC1` (single isomer, unassigned; (+)) [Example 2, (+)-N-[3-(3-Phenoxyphenyl)-2-cyclopenten-1-yl]-N-hydroxyurea], for which the ED50 in test [1] fell in the range of 1 to 10 mg/kg. In addition, the IC50 in test [2] was about 500 nM.

Take `NC(=O)N(O)C1C=C(c2cccc(Oc3ccc(Cl)cc3)c2)CC1` (single isomer, unassigned; (+)) [Example 3, (+)-N-[3-[3-(4-Chlorophenoxy)phenyl]-2-cyclopenten-1-yl]-N-hydroxyurea]: the 50% effective dose (ED50) in test [1] lay in the range of 1 to 10 mg/kg. Besides, the IC50 in test [2] was about 500 nM.

The ED50 is the midpoint of the dose-response relation. For orientation: IC50 means the point on the concentration scale where inhibition reaches its midpoint.
